Test results reported in article PMC2904454 (Cancer Chemotherapy and Pharmacology, 2009).
Where two headings read alike, the source gives them in different places.

Experiments:
[1] = Plasma pharmacokinetics of sunitinib, SU12662 and total drug; type: in vivo, human; details: for Mean trough plasma concentration: day 14 of cycle 1, Schedule 2/1
[2] = system: patients with advanced solid tumors; type: in vivo, human; details: for MTD of docetaxel in combination with sunitinib: IV q21d; for MTD of sunitinib in combination with docetaxel: with docetaxel q21d
[3] = Plasma pharmacokinetics of docetaxel; type: in vivo, human; details: for half-life / AUC(0-inf) / Cmax / Tmax: plasma, intravenous; for Tmax: median (range)
breast cancer and NSCLC = details: cited from earlier work
NSCLC = details: ESCAPE, with carboplatin and paclitaxel in NSCLC; cited from earlier work
[4] = system: patients with advanced solid tumors; assay: Safety: adverse events graded by NCI CTCAE v3.0, ECG/MUGA, patient disposition; type: in vivo, human; details: with docetaxel
[5] = Schedule 2/1 dose level 3b (MTD), n = 10
[6] = Schedule 2/1 dose level 3b (MTD), n = 10, docetaxel + sunitinib (day 1 of cycle 2)
[7] = Schedule 2/1 dose level 3b (MTD), n = 10, sunitinib alone (day 3 of cycle 1)
[8] = Schedule 4/2 dose level 0, n = 3
[9] = Schedule 4/2 dose level 0, n = 3, docetaxel + sunitinib (day 22)
[10] = Schedule 4/2 dose level 0, n = 3, sunitinib alone (day 18)
[11] = Schedule 4/2 dose level 1, n = 5
[12] = Schedule 4/2 dose level 1, n = 5, docetaxel + sunitinib (day 22)
[13] = Schedule 4/2 dose level 1, n = 5, sunitinib alone (day 18)
[14] = Schedule 2/1 dose level 3b, n = 8
[15] = Schedule 2/1 MTD only, dose level 3b (n = 23)
[16] = Schedule 2/1 dose levels 0–3b, all patients (N = 40)
[17] = Schedule 4/2 dose levels 0–1 (N = 10)

CCNCCNC(=O)c1c(C)[nH]c(/C=C2\C(=O)Nc3ccc(F)cc32)c1C [SU12662]
AUC0–24 geometric mean ratio (combination/drug alone) [1, 5]: 0.99 | C max geometric mean ratio (combination/drug alone) [1, 5]: 1.16 | AUC0–24, mean (SD) [1, 6]: 62.7 (32.4) ng*h/mL | C max, mean (SD) [1, 6]: 4.1 (1.9) ng/mL | T max, median (range) [1, 6]: 7.0 (2.0, 24.0) h | C max, mean (SD) [1, 7]: 3.4 (1.3) ng/mL | T max, median (range) [1, 7]: 5.0 (4.0, 24.0) h | AUC0–24, mean (SD) ([1]; Schedule 2/1 dose level 3b (MTD: sunitinib 37.5 mg + docetaxel 75 mg/m^2 q21d), n = 10, sunitinib alone (day 3 of cycle 1)): 58.0 (22.3) ng*h/mL | AUC0–24, mean (SD) ([1]; Schedule 4/2 dose level 0 (sunitinib 25 mg, docetaxel 60 mg/m^2), n = 3, sunitinib alone (day 18)): 294.0 (195.0) ng*h/mL | AUC0–24 geometric mean ratio (combination/drug alone) [1, 8]: 1.10 | C max geometric mean ratio (combination/drug alone) [1, 8]: 1.14 | AUC0–24, mean (SD) [1, 9]: 299.9 (132.7) ng*h/mL | C max, mean (SD) [1, 9]: 14.4 (7.2) ng/mL | T max, median (range) [1, 9]: 4.0 (2.0, 4.0) h | C max, mean (SD) [1, 10]: 13.3 (8.3) ng/mL | T max, median (range) [1, 10]: 4.0 (4.0, 12.0) h | AUC0–24, mean (SD) ([1]; Schedule 4/2 dose level 1 (sunitinib 37.5 mg, docetaxel 60 mg/m^2), n = 5, sunitinib alone (day 18)): 341.9 (110.9) ng*h/mL | AUC0–24 geometric mean ratio (combination/drug alone) [1, 11]: 1.06 | C max geometric mean ratio (combination/drug alone) [1, 11]: 1.05 | AUC0–24, mean (SD) [1, 12]: 366.8 (137.5) ng*h/mL | C max, mean (SD) [1, 12]: 17.7 (7.2) ng/mL | T max, median (range) [1, 12]: 4.0 (1.0, 12.0) h | C max, mean (SD) [1, 13]: 16.3 (4.6) ng/mL | T max, median (range) [1, 13]: 6.0 (2.0, 12.0) h | Mean trough plasma concentration [1]: 16.4 ng/mL

CC(=O)O[C@@]12CO[C@@H]1C[C@H](O)[C@@]1(C)C(=O)[C@H](O)C3=C(C)[C@@H](OC(=O)[C@H](O)[C@@H](NC(=O)OC(C)(C)C)c4ccccc4)C[C@@](O)([C@@H](OC(=O)c4ccccc4)[C@H]21)C3(C)C [docetaxel, Docetaxel]
MTD of docetaxel in combination with sunitinib ([2]; with sunitinib on Schedule 2/1): 75 mg/m^2 | MTD of docetaxel in combination with sunitinib ([2]; with sunitinib on Schedule 4/2): 60 mg/m^2 | AUCinf geometric mean ratio (combination/drug alone) [3, 14]: 1.12 | AUClast geometric mean ratio (combination/drug alone) [3, 14]: 1.16 | C max geometric mean ratio (combination/drug alone) [3, 14]: 1.24 | AUCinf geometric mean ratio (combination/drug alone) [3, 11]: 1.43 | AUClast geometric mean ratio (combination/drug alone) [3, 11]: 1.47 | C max geometric mean ratio (combination/drug alone) [3, 11]: 1.46 | AUClast, mean (SD) ([3]; human, in vivo): 2,712.5 (731.9) ng*h/mL | AUC(0-t) ([3]; human, in vivo, AUClast, mean (SD)): 2290 ng·h/mL | half-life ([3]; human, 60 mg/m^2): 19.6 h | AUC(0-inf) ([3]; human, 60 mg/m^2, AUCinf, mean (SD), Schedule 4/2 dose level 1, n = 5, drug alone (day 1 of cycle 1)): 2550 ng·h/mL | half-life ([3]; human, 75 mg/m^2): 15.7 h | AUC(0-inf) ([3]; human, 75 mg/m^2, AUCinf, mean (SD), Schedule 2/1 dose level 3b, n = 8, drug alone (day 1 of cycle 1)): 2960 ng·h/mL | Cmax ([3]; human, 75 mg/m^2, C max, mean (SD), Schedule 2/1 dose level 3b, n = 8, drug alone (day 1 of cycle 1)): 2580 ng/mL | Tmax ([3]; human, 75 mg/m^2, T max, Schedule 2/1 dose level 3b, n = 8, drug alone (day 1 of cycle 1)): 0.6 h | AUC(0-inf) ([3]; human, AUCinf, mean (SD), Schedule 4/2 dose level 1, n = 5, docetaxel + sunitinib (day 22 of cycle 1)): 3690 ng·h/mL | Cmax ([3]; human, C max, mean (SD), Schedule 2/1 dose level 3b, n = 8, docetaxel + sunitinib (day 1 of cycle 2)): 3180 ng/mL | Cmax ([3]; human, C max, mean (SD), Schedule 4/2 dose level 1, n = 5, docetaxel + sunitinib (day 22 of cycle 1)): 3100 ng/mL | Tmax ([3]; human, T max, Schedule 2/1 dose level 3b, n = 8, docetaxel + sunitinib (day 1 of cycle 2)): 0.8 h | Grade 3/4 neutropenia, patients (breast cancer and NSCLC; docetaxel monotherapy, phase III trials of breast cancer and NSCLC): 54–84% | Use of granulocytic growth factor support (breast cancer and NSCLC; single-agent docetaxel): 17.9%

CNC(=O)c1cc(Oc2ccc(NC(=O)Nc3ccc(Cl)c(C(F)(F)F)c3)cc2)ccn1 [sorafenib]
Febrile neutropenia rate (NSCLC): 5% | Grade 3/4 thrombocytopenia rate (NSCLC): 14%

CCN(CC)CCNC(=O)c1c(C)[nH]c(/C=C2\C(=O)Nc3ccc(F)cc32)c1C [sunitinib, Sunitinib malate]
MTD of sunitinib in combination with docetaxel ([2]; Schedule 2/1, oral): 37.5 mg/day | MTD of sunitinib in combination with docetaxel ([2]; Schedule 4/2, oral): 25 mg/day | Dose reduction for sunitinib [4, 15]: 4 (17) n (%) | Treatment interruption for sunitinib, adverse event [4, 15]: 9 (39) n (%) | Dose reduction for sunitinib [4, 16]: 5 (13) n (%) | Treatment interruption for sunitinib, adverse event [4, 16]: 11 (28) n (%) | Dose reduction for sunitinib [4, 17]: 1 (10) n (%) | Treatment interruption for sunitinib, adverse event [4, 17]: 3 (30) n (%) | Mean trough plasma concentration [1]: 43.8 ng/mL | AUC(0-t) ([1]; human, in vivo): 297 ng·h/mL | AUC(0-t) ([1]; human, in vivo, AUC0–24, mean (SD)): 1170 ng·h/mL | AUC(0-t) ([1]; human, plasma, oral, 25 mg, AUC0–24, mean (SD), Schedule 4/2 dose level 0 (sunitinib 25 mg, docetaxel 60 mg/m^2), n = 3, sunitinib alone (day 18)): 721 ng·h/mL | Tmax ([1]; human, plasma, oral, 37.5 mg): 8 h | AUC(0-t) ([1]; human, plasma, oral, AUC0–24, mean (SD), Schedule 4/2 dose level 0, n = 3, docetaxel + sunitinib (day 22)): 548 ng·h/mL | AUC(0-t) ([1]; human, plasma, oral, AUC0–24, mean (SD), Schedule 4/2 dose level 1, n = 5, docetaxel + sunitinib (day 22)): 1020 ng·h/mL
